According to ChEMBL document CHEMBL3880421, “Indazole compounds and pharmaceutical compositions for inhibiting protein kinases, and methods for their use” (2003):

Assays:
[1] = Antiproliferative activity against VEGF-stimulated HUVEC cells assessed as reduction in cell viability at 0.5 nM preincubated for 1 hr followed by addition of VEGF measured after 72 hrs by MTT assay; format: functional; conditions: Homo sapiens
[2] = Antiproliferative activity against VEGF-stimulated HUVEC cells assessed as reduction in cell viability at 2 nM preincubated for 1 hr followed by addition of VEGF measured after 72 hrs by MTT assay; format: functional; conditions: Homo sapiens

Row | SMILES | inhibition at 0.0005 µM [1] [%] | inhibition at 0.002 µM [2] [%]
1 | O=C(NC(CO)CO)c1ccccc1Nc1ccc2c(/C=C/c3ccccn3)n[nH]c2c1 | 48 | 8
2 | CN(C)NC(=O)c1ccccc1Nc1ccc2c(/C=C/c3ccccn3)n[nH]c2c1 | 31 | 20
3 | O=C(NCc1cccnc1)c1ccccc1Nc1ccc2c(/C=C/c3ccccn3)n[nH]c2c1 | 30 | 78
4 | CCCCCC(C)NC(=O)c1ccccc1Nc1ccc2c(/C=C/c3ccccn3)n[nH]c2c1 (stereo not drawn) | -1 | 14
5 | O=C(NCCc1cccnc1)c1ccccc1Nc1ccc2c(/C=C/c3ccccn3)n[nH]c2c1 | 23 | 61
6 | CCN(CCNC(=O)c1ccccc1Nc1ccc2c(/C=C/c3ccccn3)n[nH]c2c1)c1cccc(C)c1 | 17 | 1
7 | O=C(NNC(=O)c1ccccc1Nc1ccc2c(/C=C/c3ccccn3)n[nH]c2c1)c1ccccc1O | 30 | 61
8 | Nc1ccc(CCNC(=O)c2ccccc2Nc2ccc3c(/C=C/c4ccccn4)n[nH]c3c2)cc1 | 32 | 31
9 | CC(=O)NCCNC(=O)c1ccccc1Nc1ccc2c(/C=C/c3ccccn3)n[nH]c2c1 | 15 | 27
10 | C=C(C)CNC(=O)c1ccccc1Nc1ccc2c(/C=C/c3ccccn3)n[nH]c2c1 | 65 | 110
11 | O=CNNC(=O)c1ccccc1Nc1ccc2c(/C=C/c3ccccn3)n[nH]c2c1 | 28 | 29
12 | CCC(CC)NC(=O)c1ccccc1Nc1ccc2c(/C=C/c3ccccn3)n[nH]c2c1 | 25 | 14
13 | O=C(NO)c1ccccc1Nc1ccc2c(/C=C/c3ccccn3)n[nH]c2c1 | 7 | 25
14 | CC1(C)CC(NC(=O)c2ccccc2Nc2ccc3c(/C=C/c4ccccn4)n[nH]c3c2)CC(C)(C)N1 | 35 | 10
15 | Cc1cc(NNC(=O)c2ccccc2Nc2ccc3c(/C=C/c4ccccn4)n[nH]c3c2)nc(C)n1 | 32 | 35
16 | N#CCNC(=O)c1ccccc1Nc1ccc2c(/C=C/c3ccccn3)n[nH]c2c1 | 18 | 40
17 | O=C(NCC1CC1)c1ccccc1Nc1ccc2c(/C=C/c3ccccn3)n[nH]c2c1 | 25 to 35 | 53 to 69
18 | CCC(CO)NC(=O)c1ccccc1Nc1ccc2c(/C=C/c3ccccn3)n[nH]c2c1 (stereo not drawn) | 22 | 23
19 | Cc1noc(NC(=O)c2ccccc2Nc2ccc3c(/C=C/c4ccccn4)n[nH]c3c2)c1C | 15 | 36
20 | CC(CNC(=O)c1ccccc1Nc1ccc2c(/C=C/c3ccccn3)n[nH]c2c1)c1ccccc1 (stereo not drawn) | 26 | 83
21 | CN1CCCC1CCNC(=O)c1ccccc1Nc1ccc2c(/C=C/c3ccccn3)n[nH]c2c1 (stereo not drawn) | 30 | 23
22 | O=C(NCCCN1CCCCCC1)c1ccccc1Nc1ccc2c(/C=C/c3ccccn3)n[nH]c2c1 | 25 | -5
23 | O=C(NCC1(O)CCCCC1)c1ccccc1Nc1ccc2c(/C=C/c3ccccn3)n[nH]c2c1 | 26 | -19
24 | NS(=O)(=O)c1ccc(CNC(=O)c2ccccc2Nc2ccc3c(/C=C/c4ccccn4)n[nH]c3c2)cc1 | 1 | 13
25 | CNNC(=O)c1ccccc1Nc1ccc2c(/C=C/c3ccccn3)n[nH]c2c1 | 13 | 31

Row | SMILES | inhibition at 0.0005 µM [1] [%] | inhibition at 0.002 µM [2] [%]
26 | O=C(NC1CCCC1)c1ccccc1Nc1ccc2c(/C=C/c3ccccn3)n[nH]c2c1 | 43 | 96
27 | CC(C)CC(C)NC(=O)c1ccccc1Nc1ccc2c(/C=C/c3ccccn3)n[nH]c2c1 (stereo not drawn) | 55 | 50
28 | O=C(NCCCn1ccnc1)c1ccccc1Nc1ccc2c(/C=C/c3ccccn3)n[nH]c2c1 | 23 | 23
29 | CC(C)C(NC(=O)c1ccccc1Nc1ccc2c(/C=C/c3ccccn3)n[nH]c2c1)C(C)C | 18 | -2
30 | CC1CCCC(NC(=O)c2ccccc2Nc2ccc3c(/C=C/c4ccccn4)n[nH]c3c2)C1 (stereo not drawn) | 69 | 59
31 | CC(C)c1ccc(CNC(=O)c2ccccc2Nc2ccc3c(/C=C/c4ccccn4)n[nH]c3c2)cc1 | 23 | 51
32 | NC(=O)NNC(=O)c1ccccc1Nc1ccc2c(/C=C/c3ccccn3)n[nH]c2c1 | 19 | 5
33 | CC(C)(C)c1cc(NC(=O)c2ccccc2Nc2ccc3c(/C=C/c4ccccn4)n[nH]c3c2)no1 | 15 | 4
34 | O=C(NC1CC1)c1ccccc1Nc1ccc2c(/C=C/c3ccccn3)n[nH]c2c1 | 59 | 97
35 | COCCNC(=O)c1ccccc1Nc1ccc2c(/C=C/c3ccccn3)n[nH]c2c1 | 21 | 60
36 | CNC(=O)CNC(=O)c1ccccc1Nc1ccc2c(/C=C/c3ccccn3)n[nH]c2c1 | -1 | 26
37 | CC(C)CCNC(=O)c1ccccc1Nc1ccc2c(/C=C/c3ccccn3)n[nH]c2c1 | 14 to 47 | 47 to 55
38 | CCCC(CCC)NC(=O)c1ccccc1Nc1ccc2c(/C=C/c3ccccn3)n[nH]c2c1 | 1 | 52
39 | CN(C)CCCCNC(=O)c1ccccc1Nc1ccc2c(/C=C/c3ccccn3)n[nH]c2c1 | 23 | 16
40 | Cc1cc(NC(=O)c2ccccc2Nc2ccc3c(/C=C/c4ccccn4)n[nH]c3c2)on1 | 26 | 31
41 | O=C(N[C@H](CO)Cc1c[nH]cn1)c1ccccc1Nc1ccc2c(/C=C/c3ccccn3)n[nH]c2c1 | 22 | 24
42 | O=C(NNC(=O)c1ccccc1Nc1ccc2c(/C=C/c3ccccn3)n[nH]c2c1)c1cccs1 | 65 | 90
43 | O=C(NN1CCCC1)c1ccccc1Nc1ccc2c(/C=C/c3ccccn3)n[nH]c2c1 | 17 | 23
44 | O=C(Nc1nccs1)c1ccccc1Nc1ccc2c(/C=C/c3ccccn3)n[nH]c2c1 | 33 | 94
45 | O=C(O)CNC(=O)CCNC(=O)c1ccccc1Nc1ccc2c(/C=C/c3ccccn3)n[nH]c2c1 | 49 | -9
46 | C[C@H](CO)NC(=O)c1ccccc1Nc1ccc2c(/C=C/c3ccccn3)n[nH]c2c1 | 13 | 20
47 | NC(=O)CNC(=O)c1ccccc1Nc1ccc2c(/C=C/c3ccccn3)n[nH]c2c1 | 6 | 4
48 | O=C(NC1CCCCC1)c1ccccc1Nc1ccc2c(/C=C/c3ccccn3)n[nH]c2c1 | 12 | 76
49 | O=C(NNc1ccccc1)c1ccccc1Nc1ccc2c(/C=C/c3ccccn3)n[nH]c2c1 | 18 | 29
